From patent US6534523B1, “Hepatitis C inhibitor tri-peptides” (Boehringer Ingelheim (Canada) Ltd., priority 1998, dated 2003)

Molecular target: HCV NS3 protease (UniProt P26663)
Format: biochemical, HCV genotype 1b
Parameters: rows headed: IC50 (μM); IC50 (μM)
Settings: Table 8

Chain of HCV NS3 protease (P26663 1027-1206, other chains not shown): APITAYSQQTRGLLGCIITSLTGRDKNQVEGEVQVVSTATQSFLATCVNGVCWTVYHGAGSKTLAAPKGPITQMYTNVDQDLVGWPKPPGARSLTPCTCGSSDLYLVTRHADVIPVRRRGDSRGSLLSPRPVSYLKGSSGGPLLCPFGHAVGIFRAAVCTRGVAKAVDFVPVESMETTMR

SMILES	IC50
C=CC1CC1(NC(=O)C1CC(Oc2cc(-c3ccccc3OC)nc3cc(OC)ccc23)CN1C(=O)C(NC(=O)OC(C)(C)C)C(C)(C)C)C(=O)O (stereo not shown) [compound 823]	0.107 µM
C=CC1CC1(NC(=O)C1CC(Oc2cc(-c3ccccc3)nc3cc(OC)ccc23)CN1C(=O)C(NCc1ccccc1)C(C)C)C(=O)O (stereo not shown) [compound 826]	0.78 µM
C=CC1CC1(NC(=O)C1CC(Oc2cc(-c3ccccc3)nc3cc(OC)ccc23)CN1C(=O)C(NC(=O)NN(C)C)C(C)(C)C)C(=O)O (stereo not shown) [compound 827]	0.27 µM
C=CC1CC1(NC(=O)C1CC(Oc2cc(-c3ccccc3)nc3cc(OC)ccc23)CN1C(=O)C(Nc1cccc(C(C)=O)c1)C(C)C)C(=O)O (stereo not shown) [compound 828]	0.1 µM
C=CC1CC1(NC(=O)C1CC(Oc2cc(-c3ccccc3)nc3cc(OC)ccc23)CN1C(=O)C(NC(=O)Nc1c(C)cccc1C)C(C)(C)C)C(=O)O (stereo not shown) [compound 829]	0.057 µM
C=CC1CC1(NC(=O)C1CC(Oc2cc(-c3ccccc3)nc3cc(OC)ccc23)CN1C(=O)C(NC(=O)OC)C(C)(C)C)C(=O)O (stereo not shown) [compound 830]	0.111 µM
C=CC1CC1(NC(=O)C1CC(Oc2cc(-c3ccccc3)nc3cc(OC)ccc23)CN1C(=O)C(NC(=O)NC(C)C(N)=O)C(C)(C)C)C(=O)O (stereo not shown) [compound 831]	0.015 µM
C=CC1CC1(NC(=O)C1CC(Oc2cc(-c3ccccc3)nc3cc(OC)ccc23)CN1C(=O)C(NC(=O)NC(C)(C)C(N)=O)C(C)(C)C)C(=O)O (stereo not shown) [compound 833]	0.015 µM
C=CC1CC1(NC(=O)C1CC(Oc2cc(-c3ccccc3)nc3cc(OC)ccc23)CN1C(=O)C(Nc1cccc(C)c1)C(C)C)C(=O)O (stereo not shown) [compound 834]	0.074 µM
C=CC1CC1(NC(=O)C1CC(Oc2cc(-c3ccccc3)nc3cc(OC)ccc23)CN1C(=O)C(NC(=O)NC(C)(C)CO)C(C)(C)C)C(=O)O (stereo not shown) [compound 835]	0.007 µM
C=CC1CC1(NC(=O)C1CC(Oc2cc(-c3ccccc3)nc3cc(OC)ccc23)CN1C(=O)C(Nc1ccc([N+](=O)[O-])cc1)C(C)C)C(=O)O (stereo not shown) [compound 836]	0.13 µM
C=CC1CC1(NC(=O)C1CC(Oc2cc(-c3ccccc3)nc3cc(OC)ccc23)CN1C(=O)C(Nc1ccc(Cl)cc1)C(C)C)C(=O)O (stereo not shown) [compound 837]	0.098 µM
C=CC1CC1(NC(=O)C1CC(Oc2cc(-c3ccccc3)nc3cc(OC)ccc23)CN1C(=O)C(Nc1cccc(CO)c1)C(C)C)C(=O)O (stereo not shown) [compound 838]	0.094 µM
C=CC1CC1(NC(=O)C1CC(Oc2cc(-c3ccccc3)nc3cc(OC)ccc23)CN1C(=O)C(Nc1ccc(C#N)cc1)C(C)C)C(=O)O (stereo not shown) [compound 839]	0.1 µM
C=CC1CC1(NC(=O)C1CC(Oc2cc(-c3ccccc3)nc3cc(OC)ccc23)CN1C(=O)C(Nc1ccc(F)cc1)C(C)C)C(=O)O (stereo not shown) [compound 840]	0.085 µM
C=CC1CC1(NC(=O)C1CC(Oc2cc(-c3ccccc3C)nc3cc(OC)ccc23)CN1C(=O)C(NC(=O)OC(C)(C)C)C(C)(C)C)C(=O)O (stereo not shown) [compound 841]	0.24 µM
C=CC1CC1(NC(=O)C1CC(Oc2cc(-c3cccc(C)c3)nc3cc(OC)ccc23)CN1C(=O)C(NC(=O)OC(C)(C)C)C(C)(C)C)C(=O)O (stereo not shown) [compound 842]	0.073 µM
C=CC1CC1(NC(=O)C1CC(Oc2cc(-c3ccc(C)cc3)nc3cc(OC)ccc23)CN1C(=O)C(NC(=O)OC(C)(C)C)C(C)(C)C)C(=O)O (stereo not shown) [compound 843]	0.053 µM
C=CC1CC1(NC(=O)C1CC(Oc2cc(-c3ccc(OC)cc3)nc3cc(OC)ccc23)CN1C(=O)C(NC(=O)NC(C)(C)C)C(C)(C)C)C(=O)O (stereo not shown) [compound 844]	0.006 µM
C=CC1CC1(NC(=O)C1CC(Oc2cc(-c3ccccc3)nc3cc(OC)ccc23)CN1C(=O)C(Nc1ccc(NC(C)=O)cc1)C(C)C)C(=O)O (stereo not shown) [compound 845]	0.18 µM
C=CC1CC1(NC(=O)C1CC(Oc2cc(-c3ccccc3)nc3cc(OC)ccc23)CN1C(=O)C(Nc1ccc2c(c1)OCO2)C(C)C)C(=O)O (stereo not shown) [compound 846]	0.104 µM
C=CC1CC1(NC(=O)C1CC(Oc2cc(-c3ccccc3)nc3cc(OC)ccc23)CN1C(=O)C(NC(=O)OC(C)(C)C)C1CCCCC1)C(=O)O (stereo not shown) [compound 847]	0.037 µM
C=CC1CC1(NC(=O)C1CC(Oc2cc(-c3ccccc3)nc3cc(OC)ccc23)CN1C(=O)C(CC(C)C)NC(=O)OC(C)(C)C)C(=O)O (stereo not shown) [compound 848]	0.093 µM
C=CC1CC1(NC(=O)C1CC(Oc2cc(-c3ccccc3)nc3cc(OC)ccc23)CN1C(=O)C(CC(C)(C)C)NC(=O)OC(C)(C)C)C(=O)O (stereo not shown) [compound 849]	0.11 µM

SMILES	IC50
C=CC1CC1(NC(=O)C1CC(Oc2cc(-c3ccccc3)nc3cc(OC)ccc23)CN1C(=O)C(NC(=O)OC(C)(C)C)C(C)OC(C)(C)C)C(=O)O (stereo not shown) [compound 850]	0.063 µM
C=CC1CC1(NC(=O)C1CC(Oc2cc(-c3ccccc3)nc3cc(OC)ccc23)CN1C(=O)C(NC(=O)OC(C)(C)C)C(C)OC)C(=O)O (stereo not shown) [compound 851]	0.12 µM
C=CC1CC1(NC(=O)C1CC(Oc2cc(-c3ccccc3)nc3cc(OC)ccc23)CN1C(=O)C(NC(=O)OC(C)(C)C)C(C)OC)C(=O)O (stereo not shown) [compound 852]	0.05 µM
C=CC1CC1(NC(=O)C1CC(Oc2cc(-c3ccccc3)nc3cc(OC)ccc23)CN1C(=O)C(NC(=O)OC(C)(C)C)C(C)OCc1ccccc1)C(=O)O (stereo not shown) [compound 853]	0.17 µM
C=CC1CC1(NC(=O)C1CC(Oc2cc(-c3ccccc3)nc3cc(OC)ccc23)CN1C(=O)C(Nc1cccc(-c2ccccc2)c1)C(C)C)C(=O)O (stereo not shown) [compound 854]	0.37 µM
C=CC1CC1(NC(=O)C1CC(Oc2cc(-c3ccccc3)nc3cc(OC)ccc23)CN1C(=O)C(Nc1cccc(CCO)c1)C(C)C)C(=O)O (stereo not shown) [compound 855]	0.075 µM
C=CC1CC1(NC(=O)C1CC(Oc2cc(-c3ccccc3)nc3cc(OC)ccc23)CN1C(=O)C(Nc1ccc(CC#N)cc1)C(C)C)C(=O)O (stereo not shown) [compound 856]	0.11 µM
C=CC1CC1(NC(=O)C1CC(Oc2cc(-c3ccccc3)nc3cc(OC)ccc23)CN1C(=O)C(NC(=O)NC(C)(C)COC)C(C)(C)C)C(=O)O (stereo not shown) [compound 857]	0.011 µM
C=CC1CC1(NC(=O)C1CC(Oc2cc(-c3ccccc3)nc3cc(OC)ccc23)CN1C(=O)C(NC(=O)N(C)C(C)(C)C)C(C)(C)C)C(=O)O (stereo not shown) [compound 858]	0.205 µM
C=CC1CC1(NC(=O)C1CC(Oc2cc(-c3ccccc3)nc3cc(OC)ccc23)CN1C(=O)C(NC1CCCCC1)C(C)C)C(=O)O (stereo not shown) [compound 859]	0.83 µM
C=CC1CC1(NC(=O)C1CC(Oc2cc(-c3ccccc3)nc3cc(OC)ccc23)CN1C(=O)C(Nc1cccc(Oc2ccc(F)cc2)c1)C(C)C)C(=O)O (stereo not shown) [compound 860]	0.24 µM
C=CC1CC1(NC(=O)C1CC(Oc2cc(-c3ccccc3)nc3cc(OC)ccc23)CN1C(=O)C(Nc1cccc(CC#N)c1)C(C)C)C(=O)O (stereo not shown) [compound 861]	0.17 µM
C=CC1CC1(NC(=O)C1CC(Oc2cc(-c3ccccc3)nc3cc(OC)ccc23)CN1C(=O)C(Nc1cc(F)cc(F)c1)C(C)C)C(=O)O (stereo not shown) [compound 862]	0.23 µM
C=CC1CC1(NC(=O)C1CC(Oc2cc(-c3ccccc3)nc3cc(OC)ccc23)CN1C(=O)C(Nc1ccc2ccccc2c1)C(C)C)C(=O)O (stereo not shown) [compound 863]	0.3 µM
C=CC1CC1(NC(=O)C1CC(Oc2cc(-c3ccccc3)nc3cc(OC)ccc23)CN1C(=O)C(Nc1ccccc1F)C(C)C)C(=O)O (stereo not shown) [compound 864]	0.45 µM
C=CC1CC1(NC(=O)C1CC(Oc2cc(-c3ccccc3)nc3cc(OC)ccc23)CN1C(=O)C(NC(=O)OC1CCOC1)C(C)(C)C)C(=O)O (stereo not shown) [compound 865]	0.02 µM
C=CC1CC1(NC(=O)C1CC(Oc2cc(-c3ccccc3)nc3cc(OC)ccc23)CN1C(=O)C(NC(=O)OCC(C)(C)N)C(C)(C)C)C(=O)O (stereo not shown) [compound 866]	0.2 µM
C=CC1CC1(NC(=O)C1CC(Oc2cc(-c3ccccc3)nc3cc(OC)ccc23)CN1C(=O)C(NC(=O)OC1CCOC1)C(C)(C)C)C(=O)O (stereo not shown) [compound 867]	0.051 µM
C=CC1CC1(NC(=O)C1CC(Oc2cc(-c3ccccc3)nc3cc(OC)ccc23)CN1C(=O)C(NC(=O)OC1CCCCC1)C(C)(C)C)C(=O)O (stereo not shown) [compound 868]	0.03 µM
C=CC1CC1(NC(=O)C1CC(Oc2cc(-c3ccccc3)nc3cc(OC)ccc23)CN1C(=O)C(NC(=O)OC1CCCC1)C(C)(C)C)C(=O)O (stereo not shown) [compound 869]	0.014 µM
C=CC1CC1(NC(=O)C1CC(Oc2cc(-c3ccccc3)nc3cc(OC)ccc23)CN1C(=O)C(NC(=O)NC(C)(C)CC)C(C)(C)C)C(=O)O (stereo not shown) [compound 870]	0.009 µM
C=CC1CC1(NC(=O)C1CC(Oc2cc(-c3ccccc3)nc3cc(OC)ccc23)CN1C(=O)C(NC(=O)NC(C)(CC)CC)C(C)(C)C)C(=O)O (stereo not shown) [compound 871]	0.011 µM
C=CC1CC1(NC(=O)C1CC(Oc2cc(-c3ccccc3)nc3cc(OC)ccc23)CN1C(=O)C(NC(=O)NC(C)C(C)(C)C)C(C)(C)C)C(=O)O (stereo not shown) [compound 872]	0.005 µM
C=CC1CC1(NC(=O)C1CC(Oc2cc(-c3ccccc3)nc3cc(OC)ccc23)CN1C(=O)C(NC(=O)NC(C)C(C)(C)C)C(C)(C)C)C(=O)O (stereo not shown) [compound 873]	0.019 µM

Same assay, conditions: Table 9

SMILES	IC50
C=CC1CC1(NC(=O)C1CC(Oc2cc(-c3ccccc3)nc3cc(OC)ccc23)CN1C(=O)C(NC(=O)C(CC(=O)O)C1CCCCC1)C(C)(C)C)C(=O)O (stereo not shown) [compound 903]	0.005 µM
C=CC1CC1(NC(=O)C1CC(Oc2cc(-c3ccccc3)nc3cc(OC)ccc23)CN1C(=O)C(NC(=O)c1cccc(O)c1)C(C)(C)C)C(=O)O (stereo not shown) [compound 904]	0.095 µM
C=CC1CC1(NC(=O)C1CC(Oc2cc(-c3ccccc3)nc3cc(OC)ccc23)CN1C(=O)C(NC(=O)OC1CCC1)C(C)(C)C)C(=O)O (stereo not shown) [compound 905]	0.029 µM
C=CC1CC1(NC(=O)C1CC(Oc2cc(-c3ccccc3)nc3cc(OC)ccc23)CN1C(=O)C(NC(=O)NC(CC)C(C)(C)C)C(C)(C)C)C(=O)O (stereo not shown) [compound 906]	0.014 µM
C=CC1CC1(NC(=O)C1CC(Oc2cc(-c3ccccc3)nc3cc(OC)ccc23)CN1C(=O)C(NC(=O)OC1CCSC1)C(C)(C)C)C(=O)O (stereo not shown) [compound 907]	0.025 µM
C=CC1CC1(NC(=O)C1CC(Oc2cc(-c3ccccc3)nc3cc(OC)ccc23)CN1C(=O)C(NC(=O)c1ccccc1)C(C)(C)C)C(=O)O (stereo not shown) [compound 908]	0.072 µM
C=CC1CC1(NC(=O)C1CC(Oc2cc(-c3ccccc3)nc3cc(OC)ccc23)CN1C(=O)C(NS(=O)(=O)c1ccccc1)C(C)(C)C)C(=O)O (stereo not shown) [compound 909]	0.036 µM
